Experimental data: PubChem BioAssay AID1745844 (Carcinogenic Potency Database (CPDB), 2022)
Calls of active or inactive are those of the source. How the calls were made is not given here.

System: rodent lifetime carcinogenesis bioassay, tumor incidence TD50
Test: carcinogenic potency in animals, long-term in vivo studies, CPDB compilation (AID 1745844)

O=[N+]([O-])c1ccc(NCCO)c(OCCO)c1
carcinogen call (mouse, strain B6C3F1, females, in feed, site: any site (literature study), lesion: several types, types named in the paper, dosed 103 weeks, study length 104 weeks): negative (inactive)
carcinogen call (mouse, strain B6C3F1, males, in feed, site: any site (literature study), lesion: several types, types named in the paper, dosed 103 weeks, study length 104 weeks): negative (inactive)
carcinogen call (rat, strain Fischer 344, females, in feed, site: any site (literature study), lesion: several types, types named in the paper, dosed 103 weeks, study length 104 weeks): negative (inactive)
TD50 (rat, strain Fischer 344, males, in feed, site: pituitary gland, lesion: pars distalis adenoma, dosed 103 weeks, study length 104 weeks): 465 mg/kg/day

Cc1cccn2c1nc1ccc(N)nc12
TD50 (mouse, strain CDF1, females, in feed, site: blood vessels, lesion: hemangioendothelial sarcoma, dosed 67 weeks, study length 67 weeks): 13.8 mg/kg/day
TD50 (mouse, strain CDF1, females, in feed, site: blood vessels, lesion: several types, types named in the paper, dosed 67 weeks, study length 67 weeks): 10.9 mg/kg/day
TD50 (mouse, strain CDF1, females, in feed, site: liver, lesion: hepatocellular adenoma, dosed 67 weeks, study length 67 weeks): 44.1 mg/kg/day
TD50 (mouse, strain CDF1, females, in feed, site: liver, lesion: hepatocellular carcinoma, dosed 67 weeks, study length 67 weeks): 18.5 mg/kg/day
TD50 (mouse, strain CDF1, females, in feed, site: liver, lesion: several types, types named in the paper, dosed 67 weeks, study length 67 weeks): 5.08 mg/kg/day
TD50 (mouse, strain CDF1, females, in feed, site: lung, lesion: adenoma, dosed 67 weeks, study length 67 weeks): 166 mg/kg/day
TD50 (mouse, strain CDF1, females, in feed, site: lung, lesion: several types, types named in the paper, dosed 67 weeks, study length 67 weeks): 308 mg/kg/day
TD50 (mouse, strain CDF1, males, in feed, site: blood vessels, lesion: hemangioendothelial sarcoma, dosed 57 weeks, study length 57 weeks): 7.81 mg/kg/day
TD50 (mouse, strain CDF1, males, in feed, site: blood vessels, lesion: hemangioendothelioma, dosed 57 weeks, study length 57 weeks): 98.7 mg/kg/day
TD50 (mouse, strain CDF1, males, in feed, site: blood vessels, lesion: several types, types named in the paper, dosed 57 weeks, study length 57 weeks): 5.77 mg/kg/day
TD50 (mouse, strain CDF1, males, in feed, site: liver, lesion: hepatocellular adenoma, dosed 57 weeks, study length 57 weeks): 98.7 mg/kg/day
TD50 (mouse, strain CDF1, males, in feed, site: lung, lesion: adenoma, dosed 57 weeks, study length 57 weeks): 1000 mg/kg/day
TD50 (rat, strain F344/DuCrj, females, in feed, site: Zymbal's gland, lesion: squamous-cell carcinoma, dosed 67 weeks, study length 67 weeks): 12.7 mg/kg/day
TD50 (rat, strain F344/DuCrj, females, in feed, site: brain, lesion: astrocytoma, dosed 67 weeks, study length 67 weeks): 95.9 mg/kg/day
TD50 (rat, strain F344/DuCrj, females, in feed, site: clitoral gland, lesion: one or several types, types not named, dosed 67 weeks, study length 67 weeks): 56.1 mg/kg/day
TD50 (rat, strain F344/DuCrj, females, in feed, site: colon, lesion: adenocarcinoma, dosed 67 weeks, study length 67 weeks): 95.9 mg/kg/day
TD50 (rat, strain F344/DuCrj, females, in feed, site: colon, lesion: adenoma, dosed 67 weeks, study length 67 weeks): 71 mg/kg/day
TD50 (rat, strain F344/DuCrj, females, in feed, site: colon, lesion: several types, types named in the paper, dosed 67 weeks, study length 67 weeks): 39 mg/kg/day
TD50 (rat, strain F344/DuCrj, females, in feed, site: liver, lesion: several types, types named in the paper, dosed 67 weeks, study length 67 weeks): 8.39 mg/kg/day
TD50 (rat, strain F344/DuCrj, females, in feed, site: small intestine, lesion: adenocarcinoma, dosed 67 weeks, study length 67 weeks): 56.1 mg/kg/day
TD50 (rat, strain F344/DuCrj, females, in feed, site: small intestine, lesion: adenoma, dosed 67 weeks, study length 67 weeks): 146 mg/kg/day
TD50 (rat, strain F344/DuCrj, females, in feed, site: small intestine, lesion: mucinous carcinoma, dosed 67 weeks, study length 67 weeks): 71 mg/kg/day
TD50 (rat, strain F344/DuCrj, females, in feed, site: small intestine, lesion: several types, types named in the paper, dosed 67 weeks, study length 67 weeks): 26.1 mg/kg/day
TD50 (rat, strain F344/DuCrj, males, in feed, site: Zymbal's gland, lesion: squamous-cell carcinoma, dosed 67 weeks, study length 67 weeks): 10.2 mg/kg/day
TD50 (rat, strain F344/DuCrj, males, in feed, site: colon, lesion: adenocarcinoma, dosed 67 weeks, study length 67 weeks): 16.9 mg/kg/day
TD50 (rat, strain F344/DuCrj, males, in feed, site: colon, lesion: adenoma, dosed 67 weeks, study length 67 weeks): 15.4 mg/kg/day
TD50 (rat, strain F344/DuCrj, males, in feed, site: colon, lesion: several types, types named in the paper, dosed 67 weeks, study length 67 weeks): 9.45 mg/kg/day
TD50 (rat, strain F344/DuCrj, males, in feed, site: liver, lesion: several types, types named in the paper, dosed 67 weeks, study length 67 weeks): 3.25 mg/kg/day
TD50 (rat, strain F344/DuCrj, males, in feed, site: small intestine, lesion: adenocarcinoma, dosed 67 weeks, study length 67 weeks): 6.71 mg/kg/day
TD50 (rat, strain F344/DuCrj, males, in feed, site: small intestine, lesion: adenoma, dosed 67 weeks, study length 67 weeks): 8.21 mg/kg/day
TD50 (rat, strain F344/DuCrj, males, in feed, site: small intestine, lesion: mucinous carcinoma, dosed 67 weeks, study length 67 weeks): 236 mg/kg/day
TD50 (rat, strain F344/DuCrj, males, in feed, site: small intestine, lesion: several types, types named in the paper, dosed 67 weeks, study length 67 weeks): 5.89 mg/kg/day

CN(C)C=O
TD50 (mouse, strain Charles River CD1, females, inhaled, site: liver, lesion: hepatocellular adenoma, dosed 78 weeks, study length 78 weeks): 15800 mg/kg/day (inactive)
carcinogen call (mouse, strain Charles River CD1, males, inhaled, site: liver, lesion: hepatocellular adenoma, dosed 78 weeks, study length 78 weeks): negative (inactive)
TD50 (mouse, strain Charles River CD1, males, inhaled, site: liver, lesion: hepatocellular carcinoma, dosed 78 weeks, study length 78 weeks): 3070 mg/kg/day (inactive)
carcinogen call (rat, strain Charles River CD (Sprague-Dawley), females, inhaled, site: liver, lesion: hepatocellular adenoma, dosed 104 weeks, study length 104 weeks): negative (inactive)
TD50 (rat, strain Charles River CD (Sprague-Dawley), males, inhaled, site: liver, lesion: hepatocellular adenoma, dosed 104 weeks, study length 104 weeks): 2640 mg/kg/day (inactive)
TD50 (rat, strain Charles River CD (Sprague-Dawley), males, inhaled, site: liver, lesion: hepatocellular carcinoma, dosed 104 weeks, study length 104 weeks): 3340 mg/kg/day (inactive)
